Experiments:
[1] = Ability to inhibit platelet activating factor (PAF) binding to platelets by 50% was determined by using [3H]PAF as radioligand
[2] = target: Platelet-activating factor receptor (Canis familiaris); assay: ChEBML_158835
Procedure: Ability to inhibit platelet activating factor (PAF) binding to platelets by 50% was determined by using [3H]PAF as radioligand

SMILES | IC50 [1] [nM] | IC50 [2] [nM]
Cc1cc2nc3ccc(C(=O)NCCCCc4cccnc4)cn3c(=O)c2cc1C | 250 | –
O=C(NCCCCc1cccnc1)c1ccc2nc3ccc(O)cc3c(=O)n2c1 | 1200 | –
CC(C)c1ccc2nc3ccc(C(=O)NCCCc4cccnc4)cn3c(=O)c2c1 | > 1000 | –
CC(C)c1ccc2nc3ccc(C(=O)NC(C)(C)CCCc4cccnc4)cn3c(=O)c2c1 | 1200 | –
COc1ccc2c(=O)n3cc(C(=O)NCCCCc4cccnc4)ccc3nc2c1 | 370 | –
CC(C)c1ccc2nc3ccc(C(=O)NCCCCc4ccccn4)cn3c(=O)c2c1 | 5000 | –
CC(C)c1ccc2nc3ccc(C(=O)NCCCCCc4cccnc4)cn3c(=O)c2c1 | > 1000 | –
CC(C)c1ccc2nc3ccc(C(=O)NCCCCn4ccnc4)cn3c(=O)c2c1 | 3500 | –
O=C(NCCCCc1cccnc1)c1ccc2nc3ccccc3c(=O)n2c1 | 1800 | –
CC(CCCc1cccnc1)NC(=O)c1ccc2nc3ccc(C(C)C)cc3c(=O)n2c1 (configuration not stated) | – | 400
CC(C)c1ccc2nc3ccc(C(=O)NCCc4cccnc4)cn3c(=O)c2c1 | 2500 | –
Cc1cc2nc3ccc(C(=O)NCCCCCC[n+]4ccccc4)cn3c(=O)c2cc1C [1-{6-[(2,3-Dimethyl-11-oxo-11H-pyrido[2,1-b]quinazoline-8-carbonyl)-amino]-hexyl}-pyridinium] | > 1000 | –
CC(C)c1ccc2nc3ccc(CNCCCCc4cccnc4)cn3c(=O)c2c1 [2-Isopropyl-8-[(4-pyridin-3-yl-butylamino)-methyl]-pyrido[2,1-b]quinazolin-11-one] | > 1000 | –
CC(C)c1ccc2nc3ccc(C(=O)N[C@@H](C)CCCc4cccnc4)cn3c(=O)c2c1 [2-Isopropyl-11-oxo-11H-pyrido[2,1-b]quinazoline-8-carboxylic acid (1-methyl-4-pyridin-3-yl-butyl)-amide] | – | 600
CC(C)c1ccc2nc3ccc(C(=O)N[C@H](C)CCCc4cccnc4)cn3c(=O)c2c1 [2-Isopropyl-11-oxo-11H-pyrido[2,1-b]quinazoline-8-carboxylic acid (1-methyl-4-pyridin-3-yl-butyl)-amide] | – | 250
CC(C)c1ccc2nc3ccc(C(=O)NCCCCCCc4cncnc4)cn3c(=O)c2c1 [2-Isopropyl-11-oxo-11H-pyrido[2,1-b]quinazoline-8-carboxylic acid (6-pyrimidin-5-yl-hexyl)-amide] | 200 | –
CC(C)c1ccc2nc3ccc(S(=O)(=O)NCCCCc4cccnc4)cn3c(=O)c2c1 [2-Isopropyl-11-oxo-11H-pyrido[2,1-b]quinazoline-8-sulfonic acid (4-pyridin-3-yl-butyl)-amide] | > 1000 | –
Cc1cc2nc3ccc(C(=O)NCCCCc4ccc[n+](C)c4)cn3c(=O)c2cc1C [3-{4-[(2,3-Dimethyl-11-oxo-11H-pyrido[2,1-b]quinazoline-8-carbonyl)-amino]-butyl}-1-methyl-pyridinium] | > 1000 | –

Next, values leading:

IC50 [1] [nM] | IC50 [2] [nM] | SMILES
1300 | – | CC(C)c1ccc2nc3ccc(C(=O)NCCCCc4ccncc4)cn3c(=O)c2c1
350 | – | CC(C)c1ccc2nc3ccc(C(=O)NCCCCc4cccnc4)cn3c(=O)c2c1
600 | – | CC(C)Oc1ccc2nc3ccc(C(=O)NCCCCc4cccnc4)cn3c(=O)c2c1
> 1000 | – | CC(C)c1ccc2nc3ccc(C(=O)NCCCCCCCc4cccnc4)cn3c(=O)c2c1
1000 | – | COc1ccc2nc3ccc(C(=O)NCCCCc4cccnc4)cn3c(=O)c2c1
500 | – | Cc1ccc2nc3ccc(C(=O)NCCCCc4cccnc4)cn3c(=O)c2c1
400 | – | CC(C)c1ccc2nc3ccc(C(=O)NCCCCCCc4cccnc4)cn3c(=O)c2c1
450 | – | CC(C)c1ccc2nc3ccc(C(=O)NCCCCc4cncnc4)cn3c(=O)c2c1
700 | – | O=C(NCCCCc1cccnc1)c1ccc2nc3ccc(Br)cc3c(=O)n2c1
1000 | – | O=C(NCCCCc1cccnc1)c1ccc2nc3cc(Cl)ccc3c(=O)n2c1
100 | – | Cc1cc2nc3ccc(C(=O)NCCCCc4cncnc4)cn3c(=O)c2cc1C [2,3-Dimethyl-11-oxo-11H-pyrido[2,1-b]quinazoline-8-carboxylic acid (4-pyrimidin-5-yl-butyl)-amide]
> 1000 | – | CC(C)c1ccc2nc3ccc(CCCCCCc4cccnc4)cn3c(=O)c2c1 [2-Isopropyl-8-(6-pyridin-3-yl-hexyl)-pyrido[2,1-b]quinazolin-11-one]
> 1000 | – | CC(C)c1ccc2nc3ccc(C(=O)OCCCCc4cccnc4)cn3c(=O)c2c1 [2-Isopropyl-11-oxo-11H-pyrido[2,1-b]quinazoline-8-carboxylic acid 4-pyridin-3-yl-butyl ester]
> 1000 | – | Cc1cc2nc3ccc(C(=O)NCCCCc4cnc[n+](C)c4)cn3c(=O)c2cc1C [5-{4-[(2,3-Dimethyl-11-oxo-11H-pyrido[2,1-b]quinazoline-8-carbonyl)-amino]-butyl}-1-methyl-pyrimidin-1-ium]

— BindingDB's records for doi:10.1021/jm00397a034 (Hoffmann-La Roche, 1988)
